Values of other authors, collected in publication PMC4264749, “Phlebotomy Treatment for Elimination of Perfluoroalkyl Acids in a Highly Exposed Family: A Retrospective Case-Series” (PLoS ONE, 2014).

Details: cited from earlier work

cholestyramine
facilitating removal / elimination of PFAAs: successful | PFOA levels in users compared to non-users (individuals using it for other medical reasons, West Virginia drinking water contamination): significantly lower
